PMC6271266, “Synthesis and Biological Evaluation of Liguzinediol Mono- and Dual Ester Prodrugs as Promising Inotropic Agents” (Molecules, 2014)
Values after ≈ are worked out from the molar mass of the structure shown.

Columns and labels:
[1] = Capacity factor (k') by HPLC (lipophilic index); type: physicochemical; conditions: n = 3, mean ± SD
Method: According to the method described in the literature, the capacity factor (k') of the prodrugs was determined using high-performance liquid chromatography (HPLC). Retention times of each prodrug and LZDO were measured and k' values were calculated from the following equation: k' = (t' − t0)/t0(1) where t0 is the retention time of the uracil and t' is the retention time of each compound. All experiments were conducted in triplicate.

[2] = Hydrolysis in 80% human plasma; type: in vitro ADME; conditions: for half-life: human, 80% human plasma, pH 7.4, read-out: t1/2 (80% Human Plasma) (converted); for bioconversion to LZDO or monoester in human plasma: result in words
Method: (§1) For a rationally designed prodrug intended to prolong the half-life of the active moiety, the metabolic lability should be sufficient and continuous. Preliminary metabolic stability was assessed in human plasma and human liver microsomes The profile of disappearance of each prodrug followed a pseudo-first-order trend, and half-lives were calculated from the linear slopes of logarithmic plots of remaining prodrug over time.
A prodrug (100 μL, initial concentrations were 4.20–9.85 mM) in methanol was added to human plasma (1000 μL) diluted to 80% with 50 mM phosphate buffer solution (pH 7.4) and was placed in a constant shaker bath set. The resulting solution was subsequently incubated at 37 °C and at appropriate time intervals methanol (1 mL) containing caffeine as internal standard was added in order to deproteinize the serum. The sample was vortexed for 3 min, and then centrifuged for 5 min at 5000 g. 900 μL of clear supernatant was withdrawn and evaporated to remove the solvent. Before analysis by RP-HPLC, the samples were dissolved in methanol (200 μL), vortexed again for 5 min, and then centrifuged for 5 min at 12,000 g. All experiments were performed at least in triplicate.
(§2) Separation and quantitation of the releasing LZDO and the prodrugs were carried out using a HPLC procedure. The HPLC system was equipped with a Waters 2695 gradient pump, a Waters 2487 UV detector at 278 nm, and an Empower 2 data station. The analytical column for in vitro samples was a Boston Green ODS-AQ column (4.6 mm × 50 mm, 5 μm) and the injection volume was 10 μL. Gradient elution methods were performed with a flow rate at 1.0 mL/min on Boston Green ODS-AQ column maintained at 30 °C. The percentage of mobile phase consisting of methanol and water was varied to elute analytes (see Supplementary Material for details of the HPLC elution). The methods provided rapid analysis for quantifying LZDO, prodrug and internal standard simultaneously. When qualifying the releasing amount of LZDO, separate standard curves under specific analytic condition were prepared by spiking a known amount of LZDO and internal standard in blank matrix. Disappearance of each prodrug from in vitro samples was analyzed by taking the ratio of peak areas detected at sampling time to that at initial time. As for in vivo pharmacokinetic analysis, determinations only referred to LZDO and an Ultimate XB-C18 column (3.0 mm × 50 mm, 3 μm) with an injection volume of 2 μL was used. The flow rate on Ultimate XB-C18 column was 0.4 mL/min with a column temperature of 30 °C. The mobile phase consisted of methanol (A) and water (B). The initial mobile phase composition was 4% A/96% B and maintained for 8 min. After that the mobile phase composition was changed to 80% A/20% B over 4 min and held at that ratio for an additional 4 min. The mobile phase was returned to initial composition over 1 min and re-equilibrated for 3 min. For in vivo analytical samples, a separate standard curve was prepared using blank rat plasma and ranged from 0.39 to 50 μg/mL.

[3] = Metabolism in human liver microsomes; type: in vitro ADME; conditions: for half-life: human, human liver microsomes, pH 7.4, read-out: t1/2 (Human Liver Microsomes) (converted); for bioconversion to LZDO or monoester in human liver microsomes: result in words
Method: as §1
To the human liver microsomes which were dissolved in 50 mM phosphate buffer solution (pH 7.4) to a concentration of 1 mg/mL, a prodrug (100 μL, initial concentrations were 4.20–9.85 mM) in methanol and NADPH (100 μL, 1 mM) also in 50 mM phosphate buffer solution (pH 7.4) were successively added to initiate the incubation. The solution was then incubated at 37 °C and the subsequent procedures of sample preparations were similar to those in Section 3.5. All experiments were performed at least in triplicate.
as §2

[4] = Hydrolysis (chemical stability) in phosphate buffer pH 7.4; type: physicochemical; conditions: buffer solution pH 7.4, 37 °C, n = 3, mean ± SD
Method: The chemical stabilities of the target products were analyzed by high-performance liquid chromatography (HPLC) and were calculated as the amount unchanged within 24 h in buffer solutions at pH 7.4.
Methanolic stock solutions of each compound were added to 10 mL of 50 mM phosphate buffer solution (pH 7.4). The resulting solution was placed in a constant shaker bath set at 37 °C and after 24 h, a 10 μL aliquot of reaction solution was taken and analyzed by HPLC [35]. All experiments were performed in triplicate.

[5] = Partition coefficient, n-octanol / 50 mM phosphate buffer pH 7.4; type: physicochemical; conditions: 1-octanol/phosphate buffer (7.4) at 25 °C, n = 3, mean ± SD; for logP: n-octanol/50 mM phosphate buffer, pH 7.4
Method: Partitioning studies were performed with n-octanol and 50 mM phosphate buffer solution (pH 7.4) following standard procedures described in the literature. All experiments were conducted in triplicate, and the determination of LZDO was also carried out as a reference. Meanwhile, ChemBioDraw Ultra 12.0 was used to determine the calculated log p values as reference to the observed values.

[6] = Aqueous solubility in 50 mM phosphate buffer pH 7.4; type: physicochemical; conditions: for solubility at 24 h: thermodynamic from solid
Method: An excess of each prodrug was added to 5 mL of 50 mM phosphate buffer solution (pH 7.4), and shaken at 25 °C in a water bath to establish equilibration for 24 h. After the equilibration, the samples were filtered through a membrane filter (0.45 μm) and analyzed by HPLC. All experiments were conducted in triplicate.

[7] = prodrug disappearance, from pseudo-first-order rate constant
[8] = aqueous buffer, 50 mM phosphate buffer pH 7.4, 25 °C, 24 h, n = 3, mean ± SD

Capacity Factor [1]	% Max of LZDO Released (80% Human Plasma) ([2]; maximum percentage of liguzinediol released at 6 h incubation, 37 °C) [%]	t1/2 (80% Human Plasma) [2, 7] [h]	% Max of LZDO Released (Human Liver Microsomes) ([3]; maximum percentage of liguzinediol released at 6 h incubation, 37 °C, NADPH) [%]	t1/2 (Human Liver Microsomes) [3, 7] [h]	% Unchanged at 24 h (pH 7.4) [4]	Log P [5]	half-life [2, 7] [h]	solubility at 24 h [6, 8] [µg/mL]	half-life [3, 7] [h]	logP [5]	melting point [°C]	Solubility ([6]; 50 mM phosphate buffer pH 7.4, 25 °C, 24 h, n = 3, mean ± SD) [µg/mL]	solubility at 24 h ([6]; phosphate buffer, 25 °C, pH 7.4, aqueous buffer, as restated in conclusions) [µg/mL]	bioconversion to LZDO or monoester in human plasma [2]	bioconversion to LZDO or monoester in human liver microsomes [3]	Molecule
1.055 ± 0.061	15.6 ± 1.6	9.6 ± 1.1	15.9 ± 1.2	9.5 ± 0.9	98.2 ± 0.6%	3.38 ± 0.20	–	–	–	–	–	–	–	–	–	3,6-Dimethyl-5-hydroxy-2-octadecanoyloxymethylpyrazine [Compound M18]
0.364 ± 0.039	–	–	–	–	96.1 ± 0.2%	–	3.4 ± 0.4	29.9 ± 1.36 (≈ 0.0889 mM)	3.2 ± 0.3	2.5 ± 0.18	80 to 82	–	–	–	–	Cc1nc(COC(=O)C(C)(C)C)c(C)nc1COC(=O)C(C)(C)C [Compound D5, 3,6-Dimethyl-2,5-dipivaloyloxymethylpyrazine]
0.210 ± 0.020	–	–	–	–	98.9 ± 0.3%	–	2.6 ± 0.1	–	5.1 ± 0.2	1.33 ± 0.1	66 to 67	8000 ± 350 (≈ 31.7 mM)	8000 (≈ 31.7 mM)	–	–	Cc1nc(COC(=O)C(C)(C)C)c(C)nc1CO [Compound M5, 3,6-Dimethyl-5-hydroxymethyl-2-pivaloyloxymethylpyrazine]
6.134 ± 0.084	–	–	–	–	stable ^c	thoroughly partitioned into n-octanol	–	–	–	–	75 to 76	–	–	no bioconversion	no bioconversion	CCCCCCCCCCCCCCCCCC(=O)OCc1nc(C)c(COC(=O)CCCCCCCCCCCCCCCCC)nc1C [Compound D18, 3,6-Dimethyl-2,5-dioctadecanoyloxymethylpyrazine]
3.911 ± 0.042	–	–	–	–	stable ^c	thoroughly partitioned into n-octanol	–	–	–	–	74 to 75	–	–	no bioconversion	no bioconversion	CCCCCCCCCCCCCCCC(=O)OCc1nc(C)c(COC(=O)CCCCCCCCCCCCCCC)nc1C [Compound D16, 2,5-Dihexadecanoyloxymethyl-3,6-dimethylpyrazine]
0.834 ± 0.012	–	–	–	–	99.4 ± 0.4%	–	3.3 ± 0.6	–	3.3 ± 0.7	3.25 ± 0.13	60 to 62	–	–	–	–	CCCCCCCCCCCCCCCC(=O)OCc1nc(C)c(CO)nc1C [Compound M16, 3,6-Dimethyl-2-hexadecanoyloxymethyl-5-hydroxymethylpyrazine]
0.514 ± 0.012	–	–	–	–	99.7 ± 0.2%	–	2.6 ± 0.5	2.23 ± 0.11 (≈ 0.00636 mM)	2.2 ± 0.1	3.12 ± 0.15	40 to 41	–	–	–	–	CCCCCCCCCCCC(=O)OCc1nc(C)c(CO)nc1C [Compound M12, 3,6-Dimethyl-2-dodecanoyloxymethyl-5-hydroxymethylpyrazine]
1.068 ± 0.057	–	–	–	–	98.7 ± 0.4%	–	4.2 ± 0.4	–	4.1 ± 0.5	2.87 ± 0.16	46 to 47	–	–	–	–	CCCCCCCCCC(=O)OCc1nc(C)c(COC(=O)CCCCCCCCC)nc1C [Compound D10, 2,5-Didecanoyloxymethyl-3,6-dimethylpyrazine]
1.640 ± 0.032	–	–	–	–	99.8 ± 0.5%	–	7.9 ± 1	–	7.9 ± 0.9	3.77 ± 0.21	55 to 56	–	–	–	–	CCCCCCCCCCCC(=O)OCc1nc(C)c(COC(=O)CCCCCCCCCCC)nc1C [Compound D12, 2,5-Didodecanoyloxymethyl-3,6-dimethylpyrazine]
0.400 ± 0.015	–	–	–	–	98.9 ± 0.3%	–	2.3 ± 0.2	8.89 ± 0.21 (≈ 0.0276 mM)	2.1 ± 0.6	2.48 ± 0.04	31 to 32	–	–	–	–	CCCCCCCCCC(=O)OCc1nc(C)c(CO)nc1C [Compound M10, 2-Decanoyloxymethyl-3,6-dimethyl-5-hydroxymethylpyrazine]
0.100 ± 0.004	–	–	–	–	–	–	–	224000 (≈ 1330 mM)	–	-1.12 ± 0.11	–	–	–	–	–	Cc1nc(CO)c(C)nc1CO [Liguzinediol, 2,5-Dihydroxymethyl-3,6-dimethylpyrazine]
